Measurements reported in ChEMBL document CHEMBL5316339, “Discovery of a Series of Substituted 1H-((1,2,3-Triazol-4-yl)methoxy)pyrimidines as Brain Penetrants and Potent GluN2B-Selective Negative Allosteric Modulators” (J Med Chem, 2023).
In brackets after ≈: the same amount, converted by molar mass.

Assays:
[1] = biological target: Glutamate receptor ionotropic, NMDA 2A (Homo sapiens, UniProt Q05586+Q12879); assay: Inhibition of human GluN2A receptor by FLIPR assay
[2] = biological target: Glutamate receptor ionotropic, NMDA 2C (Homo sapiens, UniProt Q05586+Q14957); assay: Inhibition of human GluN2C receptor by FLIPR assay
[3] = biological target: Glutamate receptor ionotropic, NMDA 2D (Homo sapiens, UniProt O15399+Q05586); assay: Inhibition of human GluN2D receptor by FLIPR assay
[4] = biological target: Glutamate NMDA receptor; GRIN1/GRIN2B (Homo sapiens, UniProt Q05586+Q13224); assay: Negative allosteric modulation of human GluN1A/GluN2B receptor expressed in T-REX-CHO cells preincubated for 5 mins followed by glutamate and glycine addition and measured after 5 mins by FLIPR assay; type: cell-based
[5] = biological target: Glutamate receptor ionotropic, NMDA 2B (Rattus norvegicus, UniProt Q00960); assay: Displacement of 3-(3H) 1-(azetidin-1-yl)-2-(6- (4-fluoro-3-methyl-phenyl)pyrrolo-[…] pyridin-1yl)ethanone from GluN2B receptor in rat cortical membrane assessed as inhibition constant incubated for 2 hrs under shaking condition by liquid scintillator counter analysis; type: cell membranes, Cortex
[6] = biological target: Voltage-gated inwardly rectifying potassium channel KCNH2 (Homo sapiens, UniProt Q12809); assay: Displacement of [3H]dofetilide from human ERG expressed in HEK293 cells; type: toxicity, cell-based
MDR1 (P-gp) = assay: Efflux ratio of apparent permeability from basolateral to apical side over apical to basolateral side in MDCK-MDR1 cells at 5 uM incubated for 60 mins by LC-MS/MS analysis; type: ADME, cell-based, Canis lupus familiaris; conditions: dog
Cytochrome P450 1A2 = biological target: T1, Cytochrome P450 1A2 (Homo sapiens, UniProt P05177); assay: Inhibition of CYP1A2 in human liver microsomes incubated for 10 mins by LC-MS/MS analysis; type: ADME, Microsome
T1 sequence (P05177 whole entry): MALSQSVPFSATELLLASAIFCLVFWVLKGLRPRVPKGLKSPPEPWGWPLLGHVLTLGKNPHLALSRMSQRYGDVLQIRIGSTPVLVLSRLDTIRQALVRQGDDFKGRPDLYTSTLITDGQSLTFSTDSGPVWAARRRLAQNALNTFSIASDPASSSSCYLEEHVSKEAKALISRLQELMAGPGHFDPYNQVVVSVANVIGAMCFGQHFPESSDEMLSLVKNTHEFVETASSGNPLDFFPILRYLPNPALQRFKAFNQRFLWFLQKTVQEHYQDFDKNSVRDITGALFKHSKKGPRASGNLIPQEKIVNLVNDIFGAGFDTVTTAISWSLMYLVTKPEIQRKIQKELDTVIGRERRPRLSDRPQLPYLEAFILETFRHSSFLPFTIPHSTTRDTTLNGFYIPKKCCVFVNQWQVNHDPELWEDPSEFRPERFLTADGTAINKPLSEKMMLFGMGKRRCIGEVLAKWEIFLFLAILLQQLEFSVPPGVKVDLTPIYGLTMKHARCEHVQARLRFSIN

Cytochrome P450 2C19 = Cytochrome P450 2C19 (Homo sapiens, UniProt P33261); assay: Inhibition of CYP2C19 in human liver microsomes incubated for 10 mins by LC-MS/MS analysis; type: ADME, Microsome
Cytochrome P450 2C8 = biological target: T2, Cytochrome P450 2C8 (Homo sapiens, UniProt P10632); assay: Inhibition of CYP2C8 in human liver microsomes incubated for 10 mins by LC-MS/MS analysis; type: ADME, Microsome
T2 sequence (P10632 whole entry): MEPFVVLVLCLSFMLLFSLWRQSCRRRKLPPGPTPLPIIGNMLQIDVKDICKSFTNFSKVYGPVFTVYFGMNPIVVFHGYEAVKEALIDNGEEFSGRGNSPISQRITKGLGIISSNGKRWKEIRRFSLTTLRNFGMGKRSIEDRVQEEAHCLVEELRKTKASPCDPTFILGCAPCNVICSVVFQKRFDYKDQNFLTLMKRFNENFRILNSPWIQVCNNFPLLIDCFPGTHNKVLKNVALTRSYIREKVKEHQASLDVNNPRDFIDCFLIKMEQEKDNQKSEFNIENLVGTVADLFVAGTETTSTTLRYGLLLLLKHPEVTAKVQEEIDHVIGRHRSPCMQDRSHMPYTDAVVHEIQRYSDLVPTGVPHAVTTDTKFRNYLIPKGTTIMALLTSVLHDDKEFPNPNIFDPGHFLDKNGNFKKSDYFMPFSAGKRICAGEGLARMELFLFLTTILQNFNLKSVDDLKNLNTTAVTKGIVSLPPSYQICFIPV

Cytochrome P450 2C9 = Cytochrome P450 2C9 (Homo sapiens, UniProt P11712); assay: Inhibition of CYP2C9 in human liver microsomes incubated for 10 mins by LC-MS/MS analysis; type: ADME, Microsome
Cytochrome P450 2D6 = Cytochrome P450 2D6 (Homo sapiens, UniProt P10635); assay: Inhibition of CYP2D6 in human liver microsomes incubated for 10 mins by LC-MS/MS analysis; type: ADME, Microsome
[7] = Volume of distribution at steady state in Sprague-Dawley rat at 5 mg/kg, po or 1 mg/kg, iv measured for 24 hrs by LC-MS/MS analysis; type: ADME, organism-based; conditions: in vivo
[8] = Cmax in Sprague-Dawley rat at 5 mg/kg, po measured for 24 hrs by LC-MS/MS analysis; type: ADME, organism-based; parameters: time 24 hrs, dose 5 mg/kg, route po; conditions: in vivo
[9] = Oral bioavailability in Sprague-Dawley rat at 5 mg/kg measured for 24 hrs by LC-MS/MS analysis; type: ADME, organism-based; conditions: in vivo
[10] = Plasma protein binding in Sprague-Dawley rat assessed as free fraction; type: ADME, cell-free
[11] = Drug concentration in Sprague-Dawley rat brain assessed as free fraction; type: ADME, tissue-based
Brain [12] = assay: Ex vivo receptor occupancy at GluN2B receptor in Sprague-Dawley rat brain at 10 mg/kg, po measured after 0.25 hrs by 3 [3H] 1-(azetidin- 1-yl-2[6-(4-fluoro-3-methyl-pheny)pyrrolo[3,2-b]pyridin-1-yl]ethanon based autoradiography relative to control; type: functional
Brain [13] = assay: Ex vivo receptor occupancy at GluN2B receptor in Sprague-Dawley rat brain at 10 mg/kg, po measured after 0.5 hrs by 3 [3H] 1-(azetidin- 1-yl-2[6-(4-fluoro-3-methyl-pheny)pyrrolo[3,2-b]pyridin-1-yl]ethanon based autoradiography relative to control; type: functional
Brain [14] = assay: Ex vivo receptor occupancy at GluN2B receptor in Sprague-Dawley rat brain at 10 mg/kg, po measured after 2 hrs by 3 [3H] 1-(azetidin- 1-yl-2[6-(4-fluoro-3-methyl-pheny)pyrrolo[3,2-b]pyridin-1-yl]ethanon based autoradiography relative to control; type: functional
[15] = Drug concentration in Sprague-Dawley rat brain at 10 mg/kg, po measured after 0.25 hrs; type: ADME, organism-based; conditions: read-out: Ct
[16] = Drug concentration in Sprague-Dawley rat brain at 10 mg/kg, po measured after 0.5 hrs; type: ADME, organism-based; conditions: read-out: Ct
[17] = Drug concentration in Sprague-Dawley rat brain at 10 mg/kg, po measured after 2 hrs; type: ADME, organism-based; conditions: read-out: Ct
[18] = Drug concentration in Sprague-Dawley rat plasma at 10 mg/kg, po measured after 0.25 hrs; type: ADME, organism-based
[19] = Drug concentration in Sprague-Dawley rat plasma at 10 mg/kg, po measured after 0.5 hrs; type: ADME, organism-based
[20] = Drug concentration in Sprague-Dawley rat plasma at 10 mg/kg, po measured after 2 hrs; type: ADME, organism-based
[21] = Unbound brain to plasma concentration ratio in Sprague-Dawley rat at 10 mg/kg, po measured after 0.25 hrs; type: ADME, organism-based; conditions: brain and plasma, read-out: K(p,uu,brain)
[22] = Unbound brain to plasma concentration ratio in Sprague-Dawley rat at 10 mg/kg, po measured after 0.5 hrs; type: ADME, organism-based; conditions: brain and plasma, read-out: K(p,uu,brain)
[23] = Unbound brain to plasma concentration ratio in Sprague-Dawley rat at 10 mg/kg, po measured after 2 hrs; type: ADME, organism-based; conditions: brain and plasma, read-out: K(p,uu,brain)
Hippocampus [24] = assay: Ex vivo receptor occupancy at GluN2B receptor in Sprague-Dawley rat brain hippocampus at 0.01 to 3 mg/kg, po measured after 2 hrs by 3 [3H] 1-(azetidin- 1-yl-2[6-(4-fluoro-3-methyl-pheny)pyrrolo[3,2-b]pyridin-1-yl]ethanon based autoradiography relative to control; type: functional; conditions: dose 0.01-3 mg/kg
[25] = Drug metabolism in rat liver microsomes at 0.014 to 0.37 uM incubated for 60 mins; type: ADME, Microsome; conditions: 1 h, dose 0.014-0.37 µM
[26] = Drug metabolism in human liver microsomes assessed as O-dearylation mediated (1-(4-chloro-3-(difluoromethoxy)phenyl)-1H-1,2,3-triazol-4-yl)methanol metabolite formation at 0.1 uM in presence of NADPH; type: ADME, Microsome
[27] = Drug metabolism in rat hepatocytes at 0.01 to 0.1 uM incubated for 4 hrs; type: ADME, cell-based, Hepatocyte; conditions: dose 0.01-0.1 µM
[28] = Drug metabolism in human liver microsomes assessed as O-dearylation mediated 1-(4-chloro-3-(difluoromethoxy)phenyl)-1H-1,2,3-triazole-4-carboxylic acid metabolite formation at 0.1 uM in presence of NADPH; type: ADME, Microsome
[29] = Metabolic stability in human liver microsomes assessed as extraction ratio; type: ADME, Microsome; conditions: read-out: ERH
[30] = Metabolic stability in rat liver microsomes assessed as extraction ratio; type: ADME, Microsome; conditions: read-out: ERH
[31] = Drug metabolism in human liver microsomes assessed as O-dearylation mediated metabolite formation; type: ADME, Microsome
[32] = Drug metabolism in rat liver microsomes assessed as O-dearylation mediated metabolite formation; type: ADME, Microsome
[33] = Drug metabolism in human liver microsomes assessed as hydroxylated metabolite (2-((1-(3-(difluoromethoxy)-4-fluorophenyl)-1H-1,2,3-triazol-4-yl)methoxy)pyrimidin-5-yl)methanol formation; type: ADME, Microsome
[34] = Drug metabolism in rat liver microsomes assessed as hydroxylated metabolite (2-((1-(3-(difluoromethoxy)-4-fluorophenyl)-1H-1,2,3-triazol-4-yl)methoxy)pyrimidin-5-yl)methanol formation; type: ADME, Microsome
[35] = Drug metabolism in human liver microsomes assessed as acid metabolite 2-((1-(3-(difluoromethoxy)-4-fluorophenyl)-1H-1,2,3-triazol-4-yl)methoxy)pyrimidine-5-carboxylic acid formation; type: ADME, Microsome
[36] = Drug metabolism in rat liver microsomes assessed as acid metabolite 2-((1-(3-(difluoromethoxy)-4-fluorophenyl)-1H-1,2,3-triazol-4-yl)methoxy)pyrimidine-5-carboxylic acid formation; type: ADME, Microsome
Hippocampus [37] = assay: Ex vivo receptor occupancy at GluN2B receptor in Sprague-Dawley rat hippocampus administered orally and measured after 2 hrs by 3-[3H] 1-(azetidin- 1-yl-2[6-(4-fluoro-3-methyl-pheny)pyrrolo[3,2-b]pyridin-1-yl]ethanon based autoradiography; type: functional; conditions: route po
[38] = Solubility in aqueous buffer at pH 2; type: physicochemical
[39] = Solubility in aqueous buffer at pH 7; type: physicochemical

Chain of Glutamate NMDA receptor; GRIN1/GRIN2B (Q13224 whole entry, other chains not shown): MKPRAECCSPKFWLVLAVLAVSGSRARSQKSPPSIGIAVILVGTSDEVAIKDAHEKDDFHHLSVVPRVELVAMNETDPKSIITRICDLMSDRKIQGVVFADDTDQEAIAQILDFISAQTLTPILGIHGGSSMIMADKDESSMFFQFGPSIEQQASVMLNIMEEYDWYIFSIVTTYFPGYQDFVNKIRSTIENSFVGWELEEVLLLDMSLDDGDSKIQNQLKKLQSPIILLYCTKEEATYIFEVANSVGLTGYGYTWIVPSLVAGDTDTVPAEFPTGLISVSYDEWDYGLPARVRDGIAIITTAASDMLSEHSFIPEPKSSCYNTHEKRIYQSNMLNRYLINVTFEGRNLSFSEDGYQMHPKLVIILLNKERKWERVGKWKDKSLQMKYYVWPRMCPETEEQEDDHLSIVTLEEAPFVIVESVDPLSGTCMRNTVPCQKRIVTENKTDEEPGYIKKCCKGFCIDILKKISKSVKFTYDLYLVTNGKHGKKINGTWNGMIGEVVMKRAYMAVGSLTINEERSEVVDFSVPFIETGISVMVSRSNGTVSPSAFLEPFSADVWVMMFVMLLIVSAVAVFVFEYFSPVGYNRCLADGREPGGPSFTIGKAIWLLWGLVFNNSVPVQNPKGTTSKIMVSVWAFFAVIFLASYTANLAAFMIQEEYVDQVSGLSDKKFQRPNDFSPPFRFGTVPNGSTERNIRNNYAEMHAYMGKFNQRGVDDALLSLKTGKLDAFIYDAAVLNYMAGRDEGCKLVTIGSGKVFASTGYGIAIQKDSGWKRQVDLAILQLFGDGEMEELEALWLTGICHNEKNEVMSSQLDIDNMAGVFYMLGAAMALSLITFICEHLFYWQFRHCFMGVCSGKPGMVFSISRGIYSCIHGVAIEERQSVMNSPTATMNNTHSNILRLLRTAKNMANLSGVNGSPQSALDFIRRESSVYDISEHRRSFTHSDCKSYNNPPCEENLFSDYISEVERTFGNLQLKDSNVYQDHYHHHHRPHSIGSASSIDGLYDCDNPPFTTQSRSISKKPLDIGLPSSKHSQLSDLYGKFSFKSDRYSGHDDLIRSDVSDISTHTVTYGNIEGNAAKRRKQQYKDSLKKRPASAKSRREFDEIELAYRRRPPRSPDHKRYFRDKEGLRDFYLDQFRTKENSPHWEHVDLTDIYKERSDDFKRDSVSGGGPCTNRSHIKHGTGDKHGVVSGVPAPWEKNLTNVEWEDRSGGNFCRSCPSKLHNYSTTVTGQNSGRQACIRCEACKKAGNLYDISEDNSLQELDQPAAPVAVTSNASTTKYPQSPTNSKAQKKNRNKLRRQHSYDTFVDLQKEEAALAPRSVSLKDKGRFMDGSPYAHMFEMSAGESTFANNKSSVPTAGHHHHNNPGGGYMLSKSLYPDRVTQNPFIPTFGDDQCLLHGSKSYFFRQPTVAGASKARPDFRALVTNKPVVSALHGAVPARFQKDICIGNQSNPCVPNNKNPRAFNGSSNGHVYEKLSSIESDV
Chain of Voltage-gated inwardly rectifying potassium channel KCNH2 (Q12809 whole entry): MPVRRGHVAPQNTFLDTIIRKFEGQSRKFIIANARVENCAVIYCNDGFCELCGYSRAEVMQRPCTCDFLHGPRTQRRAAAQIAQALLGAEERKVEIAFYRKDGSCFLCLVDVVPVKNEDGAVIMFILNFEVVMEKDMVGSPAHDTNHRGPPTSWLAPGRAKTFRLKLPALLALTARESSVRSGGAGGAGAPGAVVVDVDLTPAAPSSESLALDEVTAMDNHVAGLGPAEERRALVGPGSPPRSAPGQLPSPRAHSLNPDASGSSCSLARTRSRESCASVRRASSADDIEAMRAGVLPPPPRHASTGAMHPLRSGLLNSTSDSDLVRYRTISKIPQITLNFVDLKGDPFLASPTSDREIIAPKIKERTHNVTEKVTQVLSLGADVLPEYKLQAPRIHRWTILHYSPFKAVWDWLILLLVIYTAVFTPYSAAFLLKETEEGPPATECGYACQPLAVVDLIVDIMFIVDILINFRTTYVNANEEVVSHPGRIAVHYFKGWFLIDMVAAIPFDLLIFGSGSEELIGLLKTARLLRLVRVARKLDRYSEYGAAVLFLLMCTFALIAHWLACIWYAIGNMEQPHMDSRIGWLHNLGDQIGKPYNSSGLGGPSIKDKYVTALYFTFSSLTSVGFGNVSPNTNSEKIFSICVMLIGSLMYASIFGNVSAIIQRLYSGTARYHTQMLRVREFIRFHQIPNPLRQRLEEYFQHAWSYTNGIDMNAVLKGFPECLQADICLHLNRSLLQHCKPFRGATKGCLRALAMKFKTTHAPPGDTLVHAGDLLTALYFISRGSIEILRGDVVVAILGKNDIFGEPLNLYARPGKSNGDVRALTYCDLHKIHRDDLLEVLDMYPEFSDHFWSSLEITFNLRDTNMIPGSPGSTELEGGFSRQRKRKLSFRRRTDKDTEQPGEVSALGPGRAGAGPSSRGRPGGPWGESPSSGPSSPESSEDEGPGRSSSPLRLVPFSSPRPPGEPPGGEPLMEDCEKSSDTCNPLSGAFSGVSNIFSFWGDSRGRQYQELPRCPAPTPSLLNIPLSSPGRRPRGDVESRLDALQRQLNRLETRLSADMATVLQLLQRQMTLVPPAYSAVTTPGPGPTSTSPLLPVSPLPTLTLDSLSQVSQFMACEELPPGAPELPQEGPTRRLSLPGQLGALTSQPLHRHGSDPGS
Chain of Glutamate receptor ionotropic, NMDA 2B (Q00960 whole entry): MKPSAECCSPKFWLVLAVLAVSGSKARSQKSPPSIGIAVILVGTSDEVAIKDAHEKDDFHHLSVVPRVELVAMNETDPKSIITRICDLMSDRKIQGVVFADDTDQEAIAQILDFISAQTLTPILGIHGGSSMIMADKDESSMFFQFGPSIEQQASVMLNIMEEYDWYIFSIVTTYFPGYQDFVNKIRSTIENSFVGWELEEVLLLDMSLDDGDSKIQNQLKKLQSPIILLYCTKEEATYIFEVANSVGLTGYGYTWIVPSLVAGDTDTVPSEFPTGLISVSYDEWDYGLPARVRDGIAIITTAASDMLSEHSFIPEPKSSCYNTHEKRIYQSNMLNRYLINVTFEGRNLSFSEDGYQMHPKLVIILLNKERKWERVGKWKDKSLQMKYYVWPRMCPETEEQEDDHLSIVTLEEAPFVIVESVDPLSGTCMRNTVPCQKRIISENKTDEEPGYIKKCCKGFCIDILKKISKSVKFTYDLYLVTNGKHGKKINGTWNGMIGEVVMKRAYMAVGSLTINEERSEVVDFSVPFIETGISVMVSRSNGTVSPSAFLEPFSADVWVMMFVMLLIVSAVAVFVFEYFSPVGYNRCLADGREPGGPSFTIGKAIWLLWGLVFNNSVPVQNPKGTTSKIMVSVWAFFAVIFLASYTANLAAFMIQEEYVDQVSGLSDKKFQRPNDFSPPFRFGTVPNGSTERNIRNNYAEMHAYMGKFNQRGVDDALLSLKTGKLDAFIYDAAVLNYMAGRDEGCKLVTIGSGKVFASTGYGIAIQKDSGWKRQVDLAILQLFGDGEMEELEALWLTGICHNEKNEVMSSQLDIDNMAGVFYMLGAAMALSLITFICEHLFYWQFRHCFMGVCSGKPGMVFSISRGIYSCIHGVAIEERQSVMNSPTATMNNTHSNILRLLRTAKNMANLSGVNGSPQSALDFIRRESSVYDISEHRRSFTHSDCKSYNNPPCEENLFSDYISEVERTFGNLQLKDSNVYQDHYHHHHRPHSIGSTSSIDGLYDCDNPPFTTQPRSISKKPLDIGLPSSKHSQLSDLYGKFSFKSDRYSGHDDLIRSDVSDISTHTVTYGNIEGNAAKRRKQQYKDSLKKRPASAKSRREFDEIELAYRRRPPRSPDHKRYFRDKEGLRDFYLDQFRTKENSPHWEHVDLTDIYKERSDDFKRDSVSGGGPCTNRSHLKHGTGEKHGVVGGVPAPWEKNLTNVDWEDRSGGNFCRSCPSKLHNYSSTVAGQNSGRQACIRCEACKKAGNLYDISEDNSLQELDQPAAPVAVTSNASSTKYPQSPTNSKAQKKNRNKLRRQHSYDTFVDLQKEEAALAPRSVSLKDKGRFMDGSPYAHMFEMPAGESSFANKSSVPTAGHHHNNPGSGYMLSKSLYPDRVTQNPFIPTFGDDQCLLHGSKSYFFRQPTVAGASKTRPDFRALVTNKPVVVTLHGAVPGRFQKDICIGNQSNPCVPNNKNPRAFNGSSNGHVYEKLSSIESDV
Chain of Cytochrome P450 2C9 (P11712 whole entry): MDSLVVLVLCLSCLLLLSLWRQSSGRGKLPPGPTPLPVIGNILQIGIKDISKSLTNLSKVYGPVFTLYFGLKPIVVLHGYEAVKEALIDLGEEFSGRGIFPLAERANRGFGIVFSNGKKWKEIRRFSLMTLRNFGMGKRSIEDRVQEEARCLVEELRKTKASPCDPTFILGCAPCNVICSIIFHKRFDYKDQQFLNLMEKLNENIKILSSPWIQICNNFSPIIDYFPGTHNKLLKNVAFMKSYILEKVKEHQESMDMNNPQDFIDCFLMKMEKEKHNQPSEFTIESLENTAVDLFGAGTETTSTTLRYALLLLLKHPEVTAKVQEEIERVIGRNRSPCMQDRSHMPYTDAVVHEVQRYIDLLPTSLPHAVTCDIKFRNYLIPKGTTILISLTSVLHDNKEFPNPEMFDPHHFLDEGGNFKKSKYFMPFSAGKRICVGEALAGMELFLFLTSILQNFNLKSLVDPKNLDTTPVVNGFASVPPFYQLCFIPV
Chain of Cytochrome P450 2C19 (P33261 whole entry): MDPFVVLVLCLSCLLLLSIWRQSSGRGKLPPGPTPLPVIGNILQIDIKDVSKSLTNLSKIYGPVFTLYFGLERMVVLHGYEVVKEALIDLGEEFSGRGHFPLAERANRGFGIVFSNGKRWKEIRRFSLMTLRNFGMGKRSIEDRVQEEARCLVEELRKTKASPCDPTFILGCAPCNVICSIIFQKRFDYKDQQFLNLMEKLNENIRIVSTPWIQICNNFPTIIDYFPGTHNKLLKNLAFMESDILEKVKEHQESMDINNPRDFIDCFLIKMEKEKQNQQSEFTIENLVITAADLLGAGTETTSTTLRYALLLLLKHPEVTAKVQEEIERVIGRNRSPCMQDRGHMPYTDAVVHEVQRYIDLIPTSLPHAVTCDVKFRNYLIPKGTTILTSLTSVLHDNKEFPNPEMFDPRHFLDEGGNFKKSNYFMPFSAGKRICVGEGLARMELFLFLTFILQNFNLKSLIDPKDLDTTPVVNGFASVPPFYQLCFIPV

## FC(F)Oc1cc(-n2cc(COc3ncccn3)nn2)ccc1Cl
[1]
  IC50: > 10 µM
[2]
  IC50: > 10 µM
[3]
  IC50: > 10 µM
[4]
  IC50: 0.011 µM
[5]
  Ki: 0.094 µM
[6]
  IC50: > 10 µM
MDR1 (P-gp)
  efflux ratio at 1 h, 5 µM: 1
Cytochrome P450 1A2
  IC50: > 10 µM
Cytochrome P450 2C19
  IC50: > 10 µM
Cytochrome P450 2C8
  IC50: > 10 µM
Cytochrome P450 2C9
  IC50: > 10 µM
Cytochrome P450 2D6
  IC50: > 10 µM
[7]
  Vdss: 0.51 L/kg
[8]
  Cmax: 808 ng/mL
[9]
  bioavailability: 78%
[10]
  fraction unbound: 0.024
[11]
  fraction unbound: 0.051
Brain [12]
  Occ: 71%
Brain [13]
  Occ: 92%
Brain [14]
  Occ: 85%
[15]
  concentration at 0.25 h: 1290 ng/g
[16]
  concentration at 0.5 h: 1920 ng/g
[17]
  concentration at 2 h: 3010 ng/g
[18]
  concentration at 0.25 h: 3040 ng/mL
[19]
  concentration at 0.5 h: 5120 ng/mL
[20]
  concentration at 2 h: 8650 ng/mL
[21]
  Kp uu at 0.25 h: 0.91
[22]
  Kp uu at 0.5 h: 0.78
[23]
  Kp uu at 2 h: 0.72
Hippocampus [24]
  Occ: <10%
[25]
  Drug metabolism: Metabolite_Detected
[26]
  Drug metabolism: Metabolite_Detected
[27]
  Drug metabolism: Metabolite_Detected
[28]
  Drug metabolism: Metabolite_Detected

## Cc1cnc(OCc2cn(-c3ccc(F)c(OC(F)F)c3)nn2)nc1
[4]
  IC50: 0.0035 µM
[5]
  Ki: 0.0089 µM
[6]
  IC50: > 10 µM
MDR1 (P-gp)
  efflux ratio at 1 h, 5 µM: 0.8
[29]
  hepatic extraction ratio: 0.57
[30]
  hepatic extraction ratio: 0.37
[31]
  Drug metabolism: Metabolite_Notdetected
[32]
  Drug metabolism: Metabolite_Notdetected
[33]
  Drug metabolism: Metabolite_Detected
[34]
  Drug metabolism: Metabolite_Detected
[35]
  Drug metabolism: Metabolite_Detected
[36]
  Drug metabolism: Metabolite_Detected
Hippocampus [37]
  ED50: 1.7 mg/kg
[38]
  solubility: 7.6 µM (≈ 2.67 µg/mL)
[39]
  solubility: 7.6 µM (≈ 2.67 µg/mL)
